According to ChEMBL document CHEMBL1201862, “PubChem BioAssay data set” (2004):
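Method: 48-hour compound exposure of cells in 96-well plates, five concentrations, linear interpolation of endpoints. GI50 marks 50% less growth.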 Active and inactive are the calls of the source. No stated cut-off is given here; in the data, active = GI50 up to about 1.1 µM and inactive = higher.

How the values were obtained:
Test in all cases: NCI tumour cell line growth inhibition, 48 h
[1] = system: SF-295
[2] = system: DMS-273
[3] = system: KM-20L2
[4] = system: SNB-78
[5] = system: ACHN
[6] = system: DMS-114
[7] = system: HCT-15
[8] = system: OVCAR-8
[9] = system: HOP-18
[10] = system: NCI-H23
[11] = system: DLD-1
[12] = system: NCI-H226
[13] = system: SW-620
[14] = system: SK-MEL-2
[15] = system: XF498
[16] = system: A549
[17] = system: SR
[18] = system: T47D
[19] = system: MDA-N
[20] = system: DU-145

Measured: GI50

COc1ccc(/C(Cl)=C(\C=O)c2ccc(F)cc2)cc1
inactive: [1] 8.43 µM | [2] 14.9 µM | [3] 6.87 µM | [4] 7.53 µM | [5] 6.14 µM | [6] 7.55 µM | [8] 10.8 µM | [9] 6.58 µM | [10] 14.8 µM | [11] 8.17 µM | [12] 11.7 µM | [13] 6.81 µM | [14] 8.83 µM
4.24 µM: [7]

CCCCCCSc1nc(N)nc2nc[nH]c12
35.4 µM: [7]
inactive: [15] 32.5 µM | [1] 59.6 µM | [2] 43.7 µM | [3] 39.7 µM | [4] 38.5 µM | [16] 30 µM | [8] 42.5 µM | [10] 31.8 µM | [11] 33.7 µM | [12] 32.1 µM | [13] 56.2 µM | [14] 18.4 µM

CC(=O)OCC1OC(Nc2ncc(-c3ccc(C)cc3)s2)C(OC(C)=O)C(OC(C)=O)C1OC(C)=O (configuration not stated)
inactive: [1] 43.2 µM | [2] > 58.9 µM | [4] 40.8 µM | [16] 44.5 µM | [6] 35.6 µM | [8] 39.7 µM | [9] 35.8 µM | [10] 50.7 µM | [11] 54.1 µM | [12] 25.2 µM | [13] 74.5 µM | [14] 34 µM
37.5 µM: [7]

C[Si](C)(C)/C(I)=C/CO
24.8 µM: [7]
inactive: [15] 13.6 µM | [1] 24.9 µM | [2] 20.6 µM | [3] 20.5 µM | [4] 28.6 µM | [5] 17 µM | [16] 24.1 µM | [8] 29.7 µM | [9] 32 µM | [10] 18 µM | [12] 20.4 µM | [13] 23.3 µM | [14] 19.7 µM

O=C1C2C3C=C4c5ccccc5N(c5ccccc5)C4(C2C(=O)N1Cc1ccccc1)C1C(=O)N(Cc2ccccc2)C(=O)C31 (configuration not stated)
inactive: [17] > 100 µM | [15] 96.2 µM | [1] 64 µM | [3] > 100 µM | [4] > 100 µM | [5] > 100 µM | [16] > 100 µM | [6] > 100 µM | [8] 39.4 µM | [9] > 100 µM | [10] > 100 µM | [11] > 100 µM | [13] > 100 µM | [14] > 100 µM
> 100 µM: [7]

O=S1(=O)CC#CC[C@@H](CO)[C@@H](CO)CC#CC1
inactive: [17] 38.7 µM | [15] > 100 µM | [1] > 100 µM | [3] > 100 µM | [4] > 100 µM | [5] > 100 µM | [16] > 100 µM | [8] > 100 µM | [10] > 100 µM | [11] > 100 µM | [13] 36.4 µM | [14] > 100 µM
> 100 µM: [7]

CN(C1=NCCO1)c1cccc2ccccc12
> 10 µM: [7]
inactive: [17] > 10 µM | [18] > 10 µM | [1] > 10 µM | [5] > 10 µM | [16] > 10 µM | [19] > 10 µM | [8] > 10 µM | [10] > 10 µM | [12] > 10 µM | [13] > 10 µM | [20] > 10 µM | [14] > 10 µM

Cc1cc(O)c2c(c1O)C(=O)C13C(=C(O)C4C(O)C1C1C(O)C3C(O)=C3C(=O)c5c(O)cc(C)c(O)c5C(=O)C341)C2=O (configuration not stated)
inactive: [3] 4.28 µM
0.0367 µM: [7]
active: [15] 0.134 µM | [1] 0.03 µM | [2] 0.0962 µM | [4] 0.0803 µM | [16] 0.0311 µM | [6] 0.0146 µM | [8] 0.0615 µM | [9] 0.0615 µM | [10] 0.207 µM | [11] 0.0455 µM | [12] 0.199 µM | [13] 0.0507 µM | [14] 0.172 µM

CC12CCC(=O)[C@@]1(C)CCCC2O (some centres not stated)
inactive: [17] > 100 µM | [18] > 100 µM | [1] > 100 µM | [5] > 100 µM | [16] > 100 µM | [19] > 100 µM | [8] > 100 µM | [10] > 100 µM | [12] > 100 µM | [13] > 100 µM | [20] > 100 µM | [14] > 100 µM
> 100 µM: [7]

C[S+](C)CC1OC(n2cnc3c(N)ncnc32)C(O)C1O (configuration not stated)
> 225 µM: [7]
inactive: [15] > 225 µM | [1] > 225 µM | [2] > 225 µM | [3] > 225 µM | [4] > 225 µM | [16] > 225 µM | [6] > 225 µM | [8] > 225 µM | [10] > 225 µM | [11] > 225 µM | [12] > 225 µM | [13] > 225 µM | [14] > 225 µM
